Data published in ChEMBL document CHEMBL1201862, “PubChem BioAssay data set” (2004).
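Each compound was tested at five concentrations against cells in 96-well plates for 48 hours. Here, GI50 denotes the concentration required for 50% inhibition of growth.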 The source made the active and inactive calls. Cut-off read from the data, not from the text of the source: active = GI50 up to about 1.1 µM and inactive = higher.

Assays:
Experiment in all cases: growth of human tumour cells (NCI), 48 h
786-0 = tested on: 786-0
A498 = tested on: A498
A549 = tested on: A549
ACHN = tested on: ACHN
BT-549 = tested on: BT-549
CAKI-1 = tested on: CAKI-1
CCRF-CEM = tested on: CCRF-CEM
COLO 205 = tested on: COLO 205
DU-145 = tested on: DU-145
EKVX = tested on: EKVX
HCC 2998 = tested on: HCC 2998
HCT-116 = tested on: HCT-116
HCT-15 = tested on: HCT-15
HL-60 = tested on: HL-60
HOP-62 = tested on: HOP-62
HOP-92 = tested on: HOP-92
HT-29 = tested on: HT-29
Hs-578T = tested on: Hs-578T
IGROV-1 = tested on: IGROV-1
K562 = tested on: K562
KM12 = tested on: KM12
LOX IMVI = tested on: LOX IMVI
M14 = tested on: M14
MCF7 = tested on: MCF7
MDA-MB-231 = tested on: MDA-MB-231
MDA-MB-435 = tested on: MDA-MB-435
MDA-N = tested on: MDA-N
MOLT-4 = tested on: MOLT-4
NCI-H226 = tested on: NCI-H226
NCI-H460 = tested on: NCI-H460
NCI-H522 = tested on: NCI-H522
NCI/ADR-RES = tested on: NCI/ADR-RES
OVCAR-3 = tested on: OVCAR-3
OVCAR-4 = tested on: OVCAR-4
OVCAR-5 = tested on: OVCAR-5
OVCAR-8 = tested on: OVCAR-8
PC-3 = tested on: PC-3
RPMI-8226 = tested on: RPMI-8226
RXF 393 = tested on: RXF 393
SF-268 = tested on: SF-268
SF-295 = tested on: SF-295
SF-539 = tested on: SF-539
SK-MEL-28 = tested on: SK-MEL-28
SK-MEL-2 = tested on: SK-MEL-2
SK-MEL-5 = tested on: SK-MEL-5
SK-OV-3 = tested on: SK-OV-3
SNB-19 = tested on: SNB-19
SNB-75 = tested on: SNB-75
SR = tested on: SR
SW-620 = tested on: SW-620
T47D = tested on: T47D
TK-10 = tested on: TK-10
U-251 = tested on: U-251
UACC-62 = tested on: UACC-62
UO-31 = tested on: UO-31

CC(=O)O[C@H]1C(=O)[C@@]2(C)[C@H]([C@H](OC(=O)c3ccccc3)[C@]3(O)C[C@H](OC(=O)[C@H](O)[C@@H](NC(=O)c4ccc(N)cc4)c4ccccc4)C(C)=C1C3(C)C)[C@]1(OC(C)=O)CO[C@@H]1C[C@@H]2O
GI50 (786-0): 36.9 nM (active)
GI50 (A498): 90.2 nM (active)
GI50 (A549): 8.47 nM (active)
GI50 (ACHN): 711 nM (active)
GI50 (BT-549): 38.4 nM (active)
GI50 (CAKI-1): 4660 nM (inactive)
GI50 (CCRF-CEM): < 5 nM (active)
GI50 (COLO 205): < 5 nM (active)
GI50 (DU-145): 19.1 nM (active)
GI50 (EKVX): 959 nM (active)
GI50 (HCC 2998): < 5 nM (active)
GI50 (HCT-116): < 5 nM (active)
GI50 (HCT-15): 2680 nM
GI50 (HL-60): < 5 nM (active)
GI50 (HOP-62): 25.3 nM (active)
GI50 (HOP-92): 35100 nM (inactive)
GI50 (HT-29): < 5 nM (active)
GI50 (Hs-578T): < 5 nM (active)
GI50 (IGROV-1): 14 nM (active)
GI50 (K562): < 5 nM (active)
GI50 (KM12): < 5 nM (active)
GI50 (LOX IMVI): < 5 nM (active)
GI50 (M14): 18.8 nM (active)
GI50 (MCF7): < 5 nM (active)
GI50 (MDA-MB-231): 220 nM (active)
GI50 (MDA-MB-435): 15.8 nM (active)
GI50 (MDA-N): < 5 nM (active)
GI50 (MOLT-4): 12.9 nM (active)
GI50 (NCI-H226): < 5 nM (active)
GI50 (NCI-H460): < 5 nM (active)
GI50 (NCI-H522): < 5 nM (active)
GI50 (NCI/ADR-RES): 15300 nM (inactive)
GI50 (OVCAR-3): < 5 nM (active)
GI50 (OVCAR-4): > 31800 nM (inactive)
GI50 (OVCAR-5): 6.87 nM (active)
GI50 (OVCAR-8): 10.5 nM (active)
GI50 (PC-3): < 5 nM (active)
GI50 (RPMI-8226): < 5 nM (active)
GI50 (RXF 393): 88.7 nM (active)
GI50 (SF-268): 10.7 nM (active)
GI50 (SF-295): 135 nM (active)
GI50 (SF-539): < 5 nM (active)
GI50 (SK-MEL-28): > 50000 nM (inactive)
GI50 (SK-MEL-2): < 5 nM (active)
GI50 (SK-MEL-5): < 5 nM (active)
GI50 (SK-OV-3): 13.4 nM (active)
GI50 (SNB-19): 6.75 nM (active)
GI50 (SNB-75): < 5 nM (active)
GI50 (SR): < 5 nM (active)
GI50 (SW-620): < 5 nM (active)
GI50 (T47D): < 5 nM (active)
GI50 (TK-10): 173 nM (active)
GI50 (U-251): < 5 nM (active)
GI50 (UACC-62): 8.15 nM (active)
GI50 (UO-31): 8320 nM (inactive)
